Data reported in patent publication US7247634B2, “Rifamycin derivatives effective against drug-resistant microbes” (Cumbre Pharmaceuticals Inc., priority 2004, dated 2007).
Values after ≈ are worked out from the molar mass of the structure shown. Where two headings read alike, the source gives them in different places.

Experiments:
Assay type in all cases: cell-based
[1] = test system: Staphylococcus aureus ATCC29213; test: MIC, microbroth dilution (NCCLS); conditions: rifS strain, Cation-Adjusted Mueller-Hinton Broth, 37° C., read-out: Antimicrobial activity (MIC)
[2] = test system: Staphylococcus aureus ATCC29213 rpoB^D417Y; test: microbe, parasite or virus in culture
Summary of the method: (§1)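 Tested organisms were S. aureus ATCC 29213 rpoB mutants (D417Y, H418Y; rifampin-resistant) and double gyrase/topoisomerase IV mutant EN1252a (quinolone-resistant). Growth in cation-adjusted Mueller-Hinton broth at 37 °C; MIC by microbroth dilution per NCCLS guidelines.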

[3] = test system: Staphylococcus aureus ATCC29213 rpoB^H418Y; test: microbe, parasite or virus in culture
Summary of the method: as §1

[4] = test system: Staphylococcus aureus EN1252a gyrA^S84L grlA^S80F; test: microbe, parasite or virus in culture; conditions: read-out: Antimicrobial activity (MIC)
Summary of the method: as §1

[5] = test system: Staphylococcus epidermidis ATCC12228; test: MIC, microbroth dilution (NCCLS); conditions: rifS strain, Cation-Adjusted Mueller-Hinton Broth, 37° C., read-out: Antimicrobial activity (MIC)
[6] = test system: Streptococcus pneumoniae ATCC6303; test: MIC, microbroth dilution (NCCLS); conditions: rifS strain, THY Broth with 1 mg/mL catalase, 5% CO2, 37° C., read-out: Antimicrobial activity (MIC)
[7] = test system: Streptococcus pyogenes ATCC19615; test: MIC, microbroth dilution (NCCLS); conditions: rifS strain, THY Broth, 37° C., read-out: Antimicrobial activity (MIC)
[8] = test system: Enterococcus faecalis ATCC29212; test: MIC, microbroth dilution (NCCLS); conditions: rifS strain, BHI Broth, 37° C., read-out: Antimicrobial activity (MIC)
[9] = test system: Haemophilus influenzae ATCC10211; test: MIC, microbroth dilution (NCCLS); conditions: rifS strain, BHI Broth with NAD and hematin, 37° C., read-out: Antimicrobial activity (MIC)
[10] = test system: Escherichia coli ATCC25922; test: MIC, microbroth dilution (NCCLS); conditions: rifS strain, Cation-Adjusted Mueller-Hinton Broth, 37° C., read-out: Antimicrobial activity (MIC)
[11] = test system: Mycobacterium smegmatis ATCC700084; test: MIC, microbroth dilution (NCCLS); conditions: Mycolicibacterium smegmatis, rifS strain, Middlebrook Broth plus ADC Enrichment, 37° C., read-out: Antimicrobial activity (MIC)
[12] = MIC, rifampin-susceptible Gram-positive strains (panel); conditions: across five rifampin-susceptible Gram-positive strains
Method: (§2) Representative compounds were assayed for antimicrobial activity as follows: Minimum Inhibitory Concentrations (“MICs”) were determined by the microbroth dilution method as per NCCLS guidelines (National Committee for Clinical Laboratory Standards. 2000. Methods for dilution antimicrobial susceptibility tests for bacteria that grow aerobically, 5th ed. M7-A5. National Committee for Clinical Laboratory Standards, Wayne, Pa.), except that all growth incubations were conducted at 37° C. Bacterial cultures were tested in the following bacteriological media: S. aureus, S. epidermidis, and E. coli in Cation-Adjusted Mueller-Hinton Broth, S. pneumoniae in THY Broth supplemented with 1 mg/mL catalase under 5% CO2 atmosphere, S. pyogenes in THY Broth, E. faecalis in BHI Broth, H. influenzae in BHI Broth supplemented with 0.75 μL of 1 mg/mL NAD and 150 μL of 1 mg/ml hematin per 5 mL, and M. smegmatis in Middlebrook Broth plus ADC Enrichment.
(§3) S. aureus ATCC […], S. epidermidis ATCC 12228, S. pneumoniae ATCC6303, S. pyogenes ATCC 19615 and E. faecalis ATCC 29212 are rifampin-susceptible Gram-positive strains. […] H. influenzae ATCC 10211 and E. coli ATCC 25922 are Gram-negative bacteria.

[13] = test system: H. influenzae ATCC 10211 and E. coli ATCC 25922; test: MIC, Gram-negative bacteria (panel); conditions: across two Gram-negative strains
Method: as §2, §3

[14] = ATCC29213, read-out: Antimicrobial activity (MIC)

Row | SMILES | MIC [1] | MIC [2, 14] | MIC [3, 14] | MIC [4] | MIC [5] | MIC [6] | MIC [7] | MIC [8] | MIC [9] | MIC [10] | MIC [11] | MIC ([2]; ATCC29213) | MIC ([3]; ATCC29213) | MIC [12] | MIC [13]
1 | COc1c(N2CC(NC(=O)C3CN(C4=C5NC(=O)/C(C)=C\C=C\[C@H](C)[C@H](O)[C@@H](C)[C@@H](O)[C@@H](C)[C@H](OC(C)=O)[C@H](C)[C@@H](OC)/C=C/O[C@@]6(C)Oc7c(C)c(O)c(c(c7C6=O)C4=O)C5=O)C3)C2)c(F)cc2c(=O)c(C(=O)O)cn(C3CC3)c12 [Example 47, 3-{3-[1-(3-Carboxy-1-cyclopropyl-6-fluoro-8-methoxy-4-oxo-1,4-dihydroquinolin-7-yl)-azetidin-3-ylcarbamoyl]-azetidin-1-yl}rifamycin S] | 0.004 to 0.5 mg/L (≈ 0.00356 to 0.445 µM) | 0.06 to 32 mg/L (≈ 0.0534 to 28.5 µM) | 0.06 to 16 mg/L (≈ 0.0534 to 14.2 µM) | 0.004 to 0.5 mg/L (≈ 0.00356 to 0.445 µM) | 0.008 to 0.063 mg/L (≈ 0.00712 to 0.056 µM) | 0.008 to 0.125 mg/L (≈ 0.00712 to 0.111 µM) | 0.008 to 0.063 mg/L (≈ 0.00712 to 0.056 µM) | 2 to 32 mg/L (≈ 1.78 to 28.5 µM) | 0.125 to 2 mg/L (≈ 0.111 to 1.78 µM) | 0.125 to 8 mg/L (≈ 0.111 to 7.12 µM) | 0.5 to 64 mg/L |  |  |  | 
2 | CO[C@H]1/C=C/O[C@@]2(C)Oc3c(C)c(O)c4c(c3C2=O)C(=O)C(N2CC(C(=O)N3CCN(c5ccc(N6C[C@H](CNC(C)=O)OC6=O)cc5F)CC3)C2)=C(NC(=O)/C(C)=C\C=C\[C@H](C)[C@H](O)[C@@H](C)[C@@H](O)[C@@H](C)[C@H](OC(C)=O)[C@@H]1C)C4=O [Example 48, 3-{3-(4-[1-(5-methyl-acetamidyl-2-oxo-oxazolidin-3-yl)-5-fluoro-phen-4-yl]-piperazin-1-ylcarbonyl)-azetidin-1-yl}-rifamycin S] | 0.004 to 0.5 mg/L (≈ 0.00359 to 0.449 µM) | 0.06 to 32 mg/L (≈ 0.0539 to 28.7 µM) | 0.06 to 16 mg/L (≈ 0.0539 to 14.4 µM) | 0.004 to 0.5 mg/L (≈ 0.00359 to 0.449 µM) | 0.008 to 0.063 mg/L (≈ 0.00719 to 0.0566 µM) | 0.008 to 0.125 mg/L (≈ 0.00719 to 0.112 µM) | 0.008 to 0.063 mg/L (≈ 0.00719 to 0.0566 µM) | 2 to 32 mg/L (≈ 1.8 to 28.7 µM) | 0.125 to 2 mg/L (≈ 0.112 to 1.8 µM) | 0.125 to 8 mg/L (≈ 0.112 to 7.19 µM) | 0.5 to 64 mg/L |  |  |  | 
3 | COc1c(N2CCN(C(=O)C3CCN(C4=C5NC(=O)/C(C)=C\C=C\[C@H](C)[C@H](O)[C@@H](C)[C@@H](O)[C@@H](C)[C@H](OC(C)=O)[C@H](C)[C@@H](OC)/C=C/O[C@@]6(C)Oc7c(C)c(O)c(c(c7C6=O)C4=O)C5=O)CC3)CC2)c(F)cc2c(=O)c(C(=O)O)cn(C3CC3)c12 [Example 51, 3-{4-[4-(3-Carboxy-1-cyclopropyl-6-fluoro-8-methoxy-4-oxo-1,4-dihydroquinolin-7-yl)-piperazin-1-ylcarbonyl]-piperidin-1-yl}rifamycin S] | 0.004 to 0.5 mg/L (≈ 0.00343 to 0.429 µM) | 0.06 to 32 mg/L (≈ 0.0514 to 27.4 µM) | 0.06 to 16 mg/L (≈ 0.0514 to 13.7 µM) | 0.004 to 0.5 mg/L (≈ 0.00343 to 0.429 µM) | 0.008 to 0.063 mg/L (≈ 0.00686 to 0.054 µM) | 0.008 to 0.125 mg/L (≈ 0.00686 to 0.107 µM) | 0.008 to 0.063 mg/L (≈ 0.00686 to 0.054 µM) | 2 to 32 mg/L (≈ 1.71 to 27.4 µM) | 0.125 to 2 mg/L (≈ 0.107 to 1.71 µM) | 0.125 to 8 mg/L (≈ 0.107 to 6.86 µM) | 0.5 to 64 mg/L |  |  |  | 
4 | COc1c(N2CC(NC(=O)C3CCN(C4=C5NC(=O)/C(C)=C\C=C\[C@H](C)[C@H](O)[C@@H](C)[C@@H](O)[C@@H](C)[C@H](OC(C)=O)[C@H](C)[C@@H](OC)/C=C/O[C@@]6(C)Oc7c(C)c(O)c(c(c7C6=O)C4=O)C5=O)CC3)C2)c(F)cc2c(=O)c(C(=O)O)cn(C3CC3)c12 [Example 53, 3-{4-[1-(3-Carboxy-1-cyclopropyl-6-fluoro-8-methoxy-4-oxo-1,4-dihydroquinolin-7-yl)-azetidin-3-ylcarbamoyl]-piperidin-1-yl}rifamycin S] | 0.004 to 0.5 mg/L (≈ 0.00347 to 0.434 µM) | 0.06 to 32 mg/L (≈ 0.0521 to 27.8 µM) | 0.06 to 16 mg/L (≈ 0.0521 to 13.9 µM) | 0.004 to 0.5 mg/L (≈ 0.00347 to 0.434 µM) | 0.008 to 0.063 mg/L (≈ 0.00694 to 0.0547 µM) | 0.008 to 0.125 mg/L (≈ 0.00694 to 0.108 µM) | 0.008 to 0.063 mg/L (≈ 0.00694 to 0.0547 µM) | 2 to 32 mg/L (≈ 1.74 to 27.8 µM) | 0.125 to 2 mg/L (≈ 0.108 to 1.74 µM) | 0.125 to 8 mg/L (≈ 0.108 to 6.94 µM) | 0.5 to 64 mg/L |  |  |  | 
5 | CO[C@H]1/C=C/O[C@@]2(C)Oc3c(C)c(O)c4c(c3C2=O)C(=O)C(N2CCN(c3nc5c(cc3F)c(=O)c(C(=O)O)cn5C3CC3)CC2)=C(NC(=O)/C(C)=C\C=C\[C@H](C)[C@H](O)[C@@H](C)[C@@H](O)[C@@H](C)[C@H](OC(C)=O)[C@@H]1C)C4=O [Example 55, 3-[1-(3-Carboxy-1-cyclopropyl-6-fluoro-4-oxo-1,4-dihydro-[1,8]naphthyridine-7-yl)-piperazin-4-yl]-rifamycin S] | 0.004 to 0.5 mg/L (≈ 0.0039 to 0.487 µM) | 0.06 to 32 mg/L (≈ 0.0585 to 31.2 µM) | 0.06 to 16 mg/L (≈ 0.0585 to 15.6 µM) | 0.004 to 0.5 mg/L (≈ 0.0039 to 0.487 µM) | 0.008 to 0.063 mg/L (≈ 0.0078 to 0.0614 µM) | 0.008 to 0.125 mg/L (≈ 0.0078 to 0.122 µM) | 0.008 to 0.063 mg/L (≈ 0.0078 to 0.0614 µM) | 2 to 32 mg/L (≈ 1.95 to 31.2 µM) | 0.125 to 2 mg/L (≈ 0.122 to 1.95 µM) | 0.125 to 8 mg/L (≈ 0.122 to 7.8 µM) | 0.5 to 64 mg/L |  |  |  | 
6 | CO[C@H]1/C=C/O[C@@]2(C)Oc3c(C)c(O)c4c(c3C2=O)C(=O)C(N2CCCC3(CCN(c5nc6c(cc5F)c(=O)c(C(=O)O)cn6-c5ccc(F)cc5F)C3)C2)=C(NC(=O)/C(C)=C\C=C\[C@H](C)[C@H](O)[C@@H](C)[C@@H](O)[C@@H](C)[C@H](OC(C)=O)[C@@H]1C)C4=O (stereo partly drawn) [Example 60] | 0.004 to 0.5 mg/L (≈ 0.00347 to 0.434 µM) | 0.06 to 32 mg/L (≈ 0.0521 to 27.8 µM) | 0.06 to 16 mg/L (≈ 0.0521 to 13.9 µM) | 0.004 to 0.5 mg/L (≈ 0.00347 to 0.434 µM) | 0.008 to 0.063 mg/L (≈ 0.00694 to 0.0547 µM) | 0.008 to 0.125 mg/L (≈ 0.00694 to 0.108 µM) | 0.008 to 0.063 mg/L (≈ 0.00694 to 0.0547 µM) | 2 to 32 mg/L (≈ 1.74 to 27.8 µM) | 0.125 to 2 mg/L (≈ 0.108 to 1.74 µM) | 0.125 to 8 mg/L (≈ 0.108 to 6.94 µM) | 0.5 to 64 mg/L |  |  |  | 
7 | CO[C@H]1/C=C/O[C@@]2(C)Oc3c(C)c(O)c4c(O)c(c(/C=N/N5CCN(C)CC5)c(O)c4c3C2=O)NC(=O)/C(C)=C\C=C\[C@H](C)[C@H](O)[C@@H](C)[C@@H](O)[C@@H](C)[C@H](OC(C)=O)[C@@H]1C [rifampin, reference compound] | 0.008 mg/L (≈ 0.00972 µM) | > 64 mg/L | 8 mg/L (≈ 9.72 µM) | 0.004 mg/L (≈ 0.00486 µM) | 0.03 mg/L (≈ 0.0365 µM) | 0.061 mg/L (≈ 0.0741 µM) | 0.013 mg/L (≈ 0.0158 µM) | 1 mg/L (≈ 1.22 µM) | 0.24 mg/L (≈ 0.292 µM) | 16 mg/L (≈ 19.4 µM) | 64 mg/L | > 64 mg/L | 8 mg/L (≈ 9.72 µM) | 0.008 to 1 mg/L (≈ 0.00972 to 1.22 µM) | 0.24 to 16 mg/L (≈ 0.292 to 19.4 µM)
